The values that follow come from ChEMBL document CHEMBL2176970, “Discovery and optimization of a series of 3-(3-phenyl-3H-imidazo[4,5-b]pyridin-2-yl)pyridin-2-amines: orally bioavailable, selective, and potent ATP-independent Akt inhibitors” (J Med Chem, 2012).

The source made the active and inactive calls. The calls are words filed in the database; no cut-off is given here.

Conditions in all cases: Sf9
Assay [1] concerns the target T1, RAC-alpha serine/threonine-protein kinase (Homo sapiens, UniProt P31749).
Description: Binding affinity to Akt1 (1 to 480) expressed in Sf9 cells assessed as change in melting temperature at 15 uM
Assay [2] has as its target T1, RAC-alpha serine/threonine-protein kinase. The source holds these as a separate data set.
Description: Binding affinity to Akt1 (144 to 480) expressed in Sf9 cells assessed as change in melting temperature at 15 uM
The target is the same in assay [3]. The source holds these as a separate data set.
Description: Binding affinity to Akt1 (1 to 480) expressed in Sf9 cells assessed as fluorescence quenching by Trp fluorescence assay
The target is the same in assay [4]. This is another data set of the same source.
Description: Binding affinity to Akt1 (144 to 480) expressed in Sf9 cells assessed as fluorescence quenching by Trp fluorescence assay

T1 sequence (P31749 whole entry): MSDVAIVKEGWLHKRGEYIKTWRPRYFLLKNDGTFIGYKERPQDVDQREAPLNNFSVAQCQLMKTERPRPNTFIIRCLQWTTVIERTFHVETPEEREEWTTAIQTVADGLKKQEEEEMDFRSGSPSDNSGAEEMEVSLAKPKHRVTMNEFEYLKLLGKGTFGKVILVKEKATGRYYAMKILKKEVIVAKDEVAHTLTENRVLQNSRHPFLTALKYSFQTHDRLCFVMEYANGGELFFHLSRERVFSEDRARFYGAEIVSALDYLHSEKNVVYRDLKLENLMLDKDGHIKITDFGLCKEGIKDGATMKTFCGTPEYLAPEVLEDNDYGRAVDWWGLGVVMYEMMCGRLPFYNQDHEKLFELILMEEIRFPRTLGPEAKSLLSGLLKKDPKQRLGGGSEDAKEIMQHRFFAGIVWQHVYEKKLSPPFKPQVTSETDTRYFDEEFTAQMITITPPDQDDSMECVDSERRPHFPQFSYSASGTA

For `Cc1n[nH]c2ccc(-c3cncc(OC[C@@H](N)Cc4ccccc4)c3)cc12`, the deltaTm entry in assay [1] and in assay [3] was “inactive” throughout. Besides, the ΔTm – broadly, the change in melting temperature against a reference sample – in assay [2] was found to be 1.3 °C; in assay [4] it was 2.12 °C.
